{"source": "patent US20260148853A1", "about": "“UQCC2-BASED COMPUTER-ASSISTED METHOD, SYSTEM, AND DEVICE FOR DIAGNOSING OSIMERTINIB-RESISTANT LUNG CANCER, PREDICTING DRUG THERAPEUTIC EFFECTS, AND SCREENING DRUGS TARGETED FOR OSIMERTINIB-RESISTANT LUNG CANCER” (THE SECOND HOSPITAL OF DALIAN MEDICAL UNIVERSITY, priority 2024, published 2026)", "type_in_all_cases": "cell-based", "key": {"[1]": {"test_system": "UQCC2", "assay": "western blot of UQCC2 protein expression in NCI-H1975/OR cells treated with Ctrl, Osim or Lomi", "conditions": "NCI-H1975/OR cells (osimertinib-resistant), lomitapide alone vs Osim and Ctrl, FIG. 9", "procedure": "In a specific embodiment, the protein expression levels of UQCC2 in the NCI-H1975 cells and the NCI-H1975/OR cells (Ctrl) were determined by western blot assay, or the like. The NCI-H1975/OR cells (Ctrl) were osimertinib-resistant cells. The western blot assay used anti-UQCC2 (antibody dilution ratio of 1:1000, Proteintech, #25781-1-AP). Anti-GAPDH (antibody dilution ratio of 1:50,000, Proteintech, #60004-1-Ig) was used as a loading control. Significance (denoted as P) was determined using GraphPad Prism software, etc. All statistical analyses were performed using data from at least three independent experiments. […] “*” refers to a marker sign of significance.\nIn a specific embodiment, the protein expression of UQCC2 in the NCI-H1975/OR cells (treated with Ctrl, Osim, or Lomi alone) was determined by western blot assay. The western blot assay was performed using the following antibody: anti-UQCC2 (antibody dilution ratio of 1:1000, Proteintech, #25781-1-AP). Anti-GAPDH (antibody dilution ratio of 1:50,000, Proteintech, #60004-1-Ig) was used as a loading control. Significance was calculated using GraphPad Prism software, etc."}, "[2]": {"test_system": "UQCC2", "assay": "western blot of UQCC2 after siRNA knockdown of METTL3 in H1975/OR cells", "conditions": "FIG. 11B", "excerpt": "(§1) In one embodiment, the correlation between METTL3 and UQCC2 expression was investigated by western blot assay after knockdown of the gene expression of METTL3 or UQCC2 in H1975/OR cells through small interfering RNA (siRNA), etc. The knockdown may be a partial reduction in the expression level of a specific gene.\n(§2) siMETTL3 (5′-3′) (siRNA for METTL3 gene knockdown): sense strand GCACUUGGAUCUACGGAAU(dT)(dT); antisense strand AUUCCGUAGAUCC AAGUGC(dT)(dT); siUQCC2 (5′-3′) (siRNA for UQCC2 gene knockdown): sense strand: […], antisense strand: […].\n(§3) In some embodiments, the western blot assay was performed using the following antibodies: anti-METTL 3 (antibody dilution ratio of 1:2000; #15073-1-AP; Proteintech) and anti-UQCC2 (antibody dilution ratio of 1:1000, Proteintech, #25781-1-AP). Anti-GAPDH (antibody dilution ratio 1:50,000, Proteintech, #60004-1-Ig) was used as a loading control. Significance was calculated using GraphPad Prism software, etc."}, "[3]": {"test_system": "METTL3", "assay": "western blot of METTL3 after siRNA knockdown of UQCC2 in H1975/OR cells", "conditions": "FIG. 11C", "excerpt": "as §1, §2, §3"}, "[4]": {"test_system": "autophagosome markers LC3 and p62", "assay": "western blot of autophagosome markers after UQCC2 knockdown in H1975/OR cells", "conditions": "FIG. 11", "procedure": "In a specific embodiment, the impact of UQCC2 knockdown in H1975/OR cells on the expression of the autophagosome markers LC3 and p62 was investigated by western blot assay. siUQCC2 (5′-3′): sense strand: […]; antisense strand: […].\nIn some embodiments, the western blot assay was performed using the following antibodies: anti-UQCC 2 (antibody dilution ratio of 1:1000, Proteintech, #25781-1-AP), anti-LC3 (antibody dilution ratio of 1:2000; #81004-1-RR; Proteintech), and anti-p 62 (antibody dilution ratio of 1:5000; #80294-1-RR; Proteintech). Anti-GAPDH (Antibody dilution ratio 1:50,000, Proteintech, #60004-1-Ig) was used as a loading control. Significance was calculated using GraphPad Prism software, etc."}, "[5]": {"test_system": "autophagosome marker LC3", "assay": "immunofluorescence assay of LC3 after UQCC2 knockdown in H1975/OR cells", "conditions": "FIG. 12", "procedure": "In one embodiment, the expression of the autophagosome marker LC3 was analyzed by the immunofluorescence assay after the UQCC2 knockdown in H1975/OR cells. siUQCC2 (5′-3′): sense strand: […]; antisense strand: […].\nIn some embodiments, the H 1975/OR cells may be fixed with 4% formaldehyde, permeabilized with 0.2% Triton X-100, and blocked with 5% bovine serum albumin. The cells were then incubated with the indicated antibodies at 4° C. overnight and stained with fluorescently coupled secondary antibodies and DAPI solution. The H1975/OR cells were photographed under a fluorescence microscope (Leica DM6B Thunder). Anti-LC3 (antibody dilution ratio of 1:100; antibody used was Proteintech, No. 81004-1-RR)."}}, "note": "d = 2'-deoxy (DNA)", "data": [{"compound": "O=C(NC1CCN(CCCCC2(C(=O)NCC(F)(F)F)c3ccccc3-c3ccccc32)CC1)c1ccccc1-c1ccc(C(F)(F)F)cc1", "note": "[lomitapide]", "values": [{"measurement": "protein expression of UQCC2", "setting": "[1]", "value": "significantly reduced"}]}, {"compound": "siMETTL3: siRNA for METTL3 gene knockdown; sense strand GCACUUGGAUCUACGGAAU(dT)(dT) (antisense AUUCCGUAGAUCCAAGUGC; sense: 3' dTdT, sugars by position and backbone not given here; antisense: chemistry not given here)", "values": [{"measurement": "expression of UQCC2", "setting": "[2]", "value": "downregulates"}]}, {"compound": "siUQCC2: siRNA for UQCC2 gene knockdown; sense strand GACUCCAUUCAAACUACUATT, antisense strand UAGUAGUUUUGAAUGGAGUCTT (chemistry not fully specified)", "values": [{"measurement": "expression of METTL3", "setting": "[3]", "value": "does not affect"}, {"measurement": "autophagy", "setting": "[4]", "value": "significantly activated"}, {"measurement": "expression of autophagosome marker LC3", "setting": "[4]", "value": "upregulation"}, {"measurement": "expression of autophagosome marker p62", "setting": "[4]", "value": "upregulation"}, {"measurement": "autophagy", "setting": "[5]", "value": "significantly activated"}, {"measurement": "expression of autophagosome marker LC3", "setting": "[5]", "value": "up-regulation"}]}]}
